Reference: PubChem BioAssay AID1259408 (Genetic Toxicology Data Bank (GENE-TOX), 2018)
Calls of active or inactive are those of the source. No rule for the calls is given here.

Test system: GENE-TOX genotoxicity assays, various organisms and cells
Experiment: GENE-TOX mutagenicity studies
Settings: for call: Assay Type: In vivo carcinogenicity studies
[1] = Species/Cell Type: Drosophila melanogaster, Assay Type: Sex-linked recessive lethal gene mutation, Assay Code: SRLT, Evaluation Type: Evaluation A (Pre-1980)
[2] = Species/Cell Type: Salmonella typhimurium (one or more of the five standard strains: TA98, TA100, TA1535, TA1537, and TA1538), Assay Type: Histidine reverse gene mutation, Ames assay, Assay Code: SAL+*, Activation: With metabolic activation, Evaluation Type: Evaluation A (Pre-1980)
[3] = Species/Cell Type: Nonhuman, Assay Code: CCG+, Evaluation Type: Evaluation A (Pre-1980)
[4] = Species/Cell Type: Drosophila melanogaster, Assay Type: Sex-linked recessive lethal gene mutation, Assay Code: SRL+, Evaluation Type: Evaluation A (Pre-1980)
[5] = Species/Cell Type: Salmonella typhimurium (one or more of the five standard strains: TA98, TA100, TA1535, TA1537, and TA1538), Assay Type: Histidine reverse gene mutation, Ames assay, Assay Code: SAL+, Evaluation Type: Evaluation A (Pre-1980)

For CC1CCCCN1N=O (stereo not drawn), which mutagenic call (Species/Cell Type: Drosophila melanogaster, Assay Type: Aneuploidy, partial sex chromosome loss, chromosome aberrations, Assay Code: DAPT, Evaluation Type: Evaluation A (Pre-1980)) is on record?
Its mutagenic call is “no conclusion”.

And the mutagenic call (Species/Cell Type: Drosophila melanogaster, Assay Type: Aneuploidy, whole sex chromosome loss, chromosome aberrations, Assay Code: DAC-M, Evaluation Type: Evaluation A (Pre-1980))?
The mutagenic call was “inactive; negative”.

And the mutagenic call [1]?
The mutagenic call was “no conclusion”.

And the mutagenic call (Species/Cell Type: Saccharomyces cerevisiae, Assay Type: Forward gene mutation, Assay Code: YEF+*, Activation: With metabolic activation, Evaluation Type: Evaluation A (Pre-1980))?
The mutagenic call was “active; positive”.

And the mutagenic call (Species/Cell Type: Saccharomyces cerevisiae, Assay Type: Reverse gene mutation, Assay Code: YER+*, Activation: With metabolic activation, Evaluation Type: Evaluation A (Pre-1980))?
Its mutagenic call is “active; positive”.

And the mutagenic call [2]?
Its mutagenic call is “active; positive”.

With COc1ccc(C)cc1N as the compound, how does the call [3] read?
Its call is “active; positive”.

Cc1cc2ccccc2c2ccc3ccc(F)cc3c12 was tested. Which mutagenic call (Species/Cell Type: Salmonella typhimurium (one or more of the five standard strains: TA98, TA100, TA1535, TA1537, and TA1538), Assay Type: Histidine reverse gene mutation, Ames assay, Assay Code: SALT, Evaluation Type: Evaluation A (Pre-1980)) did it give?
Its mutagenic call is “no conclusion”.

How did the mutagenic call [4] turn out when CCN(CC)CCn1nc2c3c(c(C)ccc31)Sc1ccccc1-2 was run?
Its mutagenic call is “active; positive”.

What about the mutagenic call (Species/Cell Type: Mouse lymphoma (L5178Y) cells, Assay Type: Forward gene mutation at the thymidine kinase (TK) locus, chromosome aberrations, Assay Code: L51+, Evaluation Type: Evaluation A (Pre-1980)) of the same compound?
The mutagenic call was “active; positive”.

And the mutagenic call (Species/Cell Type: Neurospora crassa, Assay Type: Forward gene mutation, Assay Code: NEF+, Evaluation Type: Evaluation A (Pre-1980))?
Its mutagenic call is “active; positive”.

NC(Cc1ccc(N(CCCl)CCCl)cc1)C(=O)O (stereo not drawn) was tested. Which mutagenic call [4] did it give?
The mutagenic call was “active; positive”.

And the call [3]?
Its call is “active; positive”.

With CCCN(CCCC(=O)O)N=O as the compound, how does the mutagenic call [5] read?
Its mutagenic call is “active; positive”.

Which mutagenic call (Species/Cell Type: Nonhuman, Assay Type: Sister-chromatid exchange (SCE) in vitro, Assay Code: SC2T, Evaluation Type: Evaluation B (Post-1980)) does the source give for C/C=C/C=C/C#C/C=C/C=C/CCCCCOC(C)=O here?
Its mutagenic call is “no conclusion”.

How did the mutagenic call (Species/Cell Type: Chinese hamster lung (V79) cells, Assay Type: Forward gene mutation at the HPRT or ouabain locus, Assay Code: V79+, Evaluation Type: Evaluation A (Pre-1980)) turn out when CN(N=O)C(=O)N[C@@H]1O[C@H](CO)[C@H](O)[C@H](O)[C@H]1O was run?
The mutagenic call was “active; positive”.

With COc1cc([C@@H]2c3cc4c(cc3[C@@H](O[C@@H]3O[C@H](CO)[C@@H](O)[C@H](O)[C@H]3O)[C@H]3COC(=O)[C@H]23)OCO4)cc(OC)c1O as the compound, how does the mutagenic call (Species/Cell Type: Chinese hamster ovary (CHO) cells, Assay Type: Forward gene mutation at the HPRT locus, Assay Code: CHO+, Evaluation Type: Evaluation B (Post-1980)) read?
The mutagenic call was “active; positive”.

How did the mutagenic call [5] turn out when O=C(c1ccc2c(c1)OCO2)C1CO1 (stereo not drawn) was run?
The mutagenic call was “active; positive”.

Which mutagenic call (Species/Cell Type: Allium cepa, Assay Type: Chromosome aberrations, Assay Code: ALC-, Evaluation Type: Evaluation A (Pre-1980)) does the source give for CCc1ccc(O)c(O)c1 here?
The mutagenic call was “inactive; negative”.

CCNC(=S)NCC was tested. Which call (Species/Cell Type: Nonhuman, Assay Code: CCG+L, Evaluation Type: Evaluation A (Pre-1980)) did it give?
The call was “active; positive”.

What about the mutagenic call (Species/Cell Type: Syrian hamster embryo (SA7/SHE) cells, Assay Type: Cell transformation, viral enhanced, Assay Code: CT7-, Evaluation Type: Evaluation A (Pre-1980)) of the same compound?
Its mutagenic call is “inactive; negative”.

With O=[N+]([O-])c1ccc(-c2nc(NCCO)c3ccccc3n2)s1 as the compound, how does the mutagenic call [5] read?
The mutagenic call was “active; positive”.

Which mutagenic call (Species/Cell Type: Allium cepa, Assay Type: Chromosome aberrations, Assay Code: ALC+D, Dose Response: With dose response, Evaluation Type: Evaluation A (Pre-1980)) does the source give for C1O[C@@H]1[C@H]1CO1 here?
The mutagenic call was “active; positive”.

What about the mutagenic call (Species/Cell Type: Arabidopsis species, Assay Type: Gene mutation, Assay Code: ARM+, Evaluation Type: Evaluation A (Pre-1980)) of the same compound?
Its mutagenic call is “active; positive”.

What about the mutagenic call (Species/Cell Type: Schizosaccharomyces pombe, Assay Type: Reverse gene mutation, Assay Code: YEZ+, Evaluation Type: Evaluation A (Pre-1980)) of the same compound?
Its mutagenic call is “active; positive”.

What about the mutagenic call (Species/Cell Type: Zea mays (corn), Assay Type: Gene mutation, Assay Code: ZEM+, Evaluation Type: Evaluation A (Pre-1980)) of the same compound?
Its mutagenic call is “active; positive”.

How did the mutagenic call (Species/Cell Type: Escherichia coli polA (W3110 vs P3478), Assay Type: Rec-assay, DNA effects (bacterial DNA repair), Assay Code: RE2+, Evaluation Type: Evaluation A (Pre-1980)) turn out when Nc1ccc(-c2ccccc2)cc1 was run?
Its mutagenic call is “active; positive”.

What about the mutagenic call (Species/Cell Type: Escherichia coli polA (W3119 vs P3478), Assay Type: Rec-assay, DNA effects (bacterial DNA repair), Assay Code: RE1T, Evaluation Type: Evaluation A (Pre-1980)) of the same compound?
Its mutagenic call is “no conclusion”.

What about the mutagenic call (Species/Cell Type: Fischer rat embryo (RLV/1706) cells, Assay Type: Cell transformation, viral enhanced, Assay Code: CTR+, Evaluation Type: Evaluation A (Pre-1980)) of the same compound?
Its mutagenic call is “active; positive”.

And the mutagenic call (Species/Cell Type: Human diploid fibroblasts, Assay Type: Unscheduled DNA synthesis (UDS) in vitro, DNA effects, Assay Code: UDH-, Evaluation Type: Evaluation A (Pre-1980))?
Its mutagenic call is “inactive; negative”.

And the mutagenic call (Species/Cell Type: Mammalian polychromatic erythrocytes, Assay Type: Micronucleus test, chromosome aberrations, Assay Code: MNTT, Evaluation Type: Evaluation A (Pre-1980))?
Its mutagenic call is “no conclusion”.

What about the mutagenic call (Species/Cell Type: Mouse embryo (AKR/ME) cells, Assay Type: Cell transformation, Assay Code: CTK+, Evaluation Type: Evaluation A (Pre-1980)) of the same compound?
Its mutagenic call is “active; positive”.

And the call [3]?
Its call is “active; positive”.

And the mutagenic call (Species/Cell Type: Nonhuman, Assay Type: Sister-chromatid exchange (SCE) in vivo, Assay Code: SC3+, Evaluation Type: Evaluation B (Post-1980))?
Its mutagenic call is “active; positive”.

And the mutagenic call (Species/Cell Type: Rat primary hepatocytes, Assay Type: Unscheduled DNA synthesis (UDS) in vitro, DNA effects, Assay Code: UDP+, Evaluation Type: Evaluation A (Pre-1980))?
The mutagenic call was “active; positive”.

What about the mutagenic call (Species/Cell Type: Saccharomyces cerevisiae, Assay Type: Mitotic recombination or gene conversion, Assay Code: YEH+, Evaluation Type: Evaluation A (Pre-1980)) of the same compound?
Its mutagenic call is “active; positive”.

And the mutagenic call [2]?
The mutagenic call was “active; positive”.

And the mutagenic call (Species/Cell Type: Salmonella typhimurium, Assay Type: Forward and reverse gene mutation, body fluid assay, Assay Code: BFU+, Evaluation Type: Evaluation A (Pre-1980))?
The mutagenic call was “active; positive”.

And the mutagenic call (Species/Cell Type: Salmonella typhimurium, Assay Type: Forward and reverse gene mutation, host-mediated assay, Assay Code: HMA+, Evaluation Type: Evaluation A (Pre-1980))?
Its mutagenic call is “active; positive”.

And the mutagenic call (Species/Cell Type: Syrian hamster embryo (SHE) cells, Assay Type: Cell transformation, clonal assay, Assay Code: CTC+, Evaluation Type: Evaluation A (Pre-1980))?
The mutagenic call was “active; positive”.

How did the mutagenic call [5] turn out when COc1ccc(N)c2c1C(=O)c1ccccc1C2=O was run?
Its mutagenic call is “active; positive”.

How did the mutagenic call (Species/Cell Type: Salmonella typhimurium, Assay Type: Forward and reverse gene mutation, host-mediated assay, Assay Code: HMAT, Evaluation Type: Evaluation A (Pre-1980)) turn out when CNC(=O)Nc1nc(-c2ccc(OC)cc2)cs1 was run?
The mutagenic call was “no conclusion”.

How did the mutagenic call (Species/Cell Type: Human lymphocytes, Assay Type: Sister-chromatid exchange (SCE) in vitro, Assay Code: SCLT, Evaluation Type: Evaluation B (Post-1980)) turn out when CCc1cccc(O)c1 was run?
The mutagenic call was “no conclusion”.

And the mutagenic call (Species/Cell Type: Human, Assay Type: Sister-chromatid exchange (SCE) in vitro, Assay Code: SC1T, Evaluation Type: Evaluation B (Post-1980))?
The mutagenic call was “no conclusion”.

Which results are given for COc1cc2c(c3oc(=O)c4c(c13)CCOC4=O)C1C=COC1O2 (stereo not drawn)?
mutagenic call (Species/Cell Type: Aspergillus nidulans, Assay Type: Forward gene mutation, Assay Code: ASF+*, Activation: With metabolic activation, Evaluation Type: Evaluation A (Pre-1980)): active; positive; mutagenic call [1]: no conclusion; mutagenic call (Species/Cell Type: Drosophila melanogaster, Sex: Male, Assay Type: Heritable translocation test, chromosome aberrations, Assay Code: DHTT, Evaluation Type: Evaluation A (Pre-1980)): no conclusion; mutagenic call (Species/Cell Type: Human lymphocytes or leukocytes, Assay Type: Chromosome aberrations in vitro, Assay Code: CY7T, Evaluation Type: Evaluation A (Pre-1980)): no conclusion; mutagenic call (Species/Cell Type: Vicia faba, Assay Type: Chromosome aberrations, Assay Code: VIC+, Evaluation Type: Evaluation A (Pre-1980)): active; positive

How did the mutagenic call [2] turn out when Cc1cc2c(c3ccc4ccccc4c13)C(=O)CC2 was run?
The mutagenic call was “active; positive”.

For O=C1c2ccccc2-c2ccc(Oc3ccc(S(=O)(=O)O)cc3)c3cccc1c23, which mutagenic call [5] is on record?
Its mutagenic call is “active; positive”.

Cc1c2c(cc3c1ccc1ccccc13)C=CC(O)C2O (stereo not drawn) was tested. Which mutagenic call [2] did it give?
Its mutagenic call is “active; positive”.

Which mutagenic call (Species/Cell Type: Human, Sex: Male, Assay Type: Sperm morphology, Assay Code: SPH-, Evaluation Type: Evaluation A (Pre-1980)) does the source give for NCCC[C@H](N)C(=O)O here?
The mutagenic call was “inactive; negative”.

How did the mutagenic call (Species/Cell Type: Saccharomyces cerevisiae, Assay Type: Forward gene mutation, Assay Code: YEFT, Evaluation Type: Evaluation A (Pre-1980)) turn out when c1ccc2nc3ccccc3cc2c1 was run?
Its mutagenic call is “no conclusion”.

CC(C)NCC(O)c1ccc2ccccc2c1 (stereo not drawn) was tested. Which mutagenic call (Species/Cell Type: Human diploid fibroblasts, Assay Type: Unscheduled DNA synthesis (UDS) in vitro, DNA effects, Assay Code: UDHT, Evaluation Type: Evaluation A (Pre-1980)) did it give?
Its mutagenic call is “no conclusion”.

And the mutagenic call (Species/Cell Type: Mammalian polychromatic erythrocytes, Assay Type: Micronucleus test, chromosome aberrations, Assay Code: MNTT, Evaluation Type: Evaluation B (Post-1980))?
The mutagenic call was “no conclusion”.

What about the mutagenic call (Species/Cell Type: Mouse, Sex: Male, Assay Type: Sperm morphology, Assay Code: SPI-, Evaluation Type: Evaluation A (Pre-1980)) of the same compound?
The mutagenic call was “inactive; negative”.

For CCOC(C)=O, which mutagenic call (Species/Cell Type: Bacillus subtilis (H17 vs M45), Assay Type: Rec-assay, spot test, DNA effects (bacterial DNA repair), Assay Code: REWT, Evaluation Type: Evaluation A (Pre-1980)) is on record?
The mutagenic call was “no conclusion”.

What about the mutagenic call (Species/Cell Type: Mammalian polychromatic erythrocytes, Assay Type: Micronucleus test, chromosome aberrations, Assay Code: MNT-, Evaluation Type: Evaluation B (Post-1980)) of the same compound?
Its mutagenic call is “inactive; negative”.

Oc1ccc(O)cc1 was tested. Which mutagenic call (Species/Cell Type: Allium cepa, Assay Type: Chromosome aberrations, Assay Code: ALC+, Evaluation Type: Evaluation A (Pre-1980)) did it give?
Its mutagenic call is “active; positive”.

And the mutagenic call (Species/Cell Type: Human lymphocytes, Assay Type: Sister-chromatid exchange (SCE) in vitro, Assay Code: SCL+D, Dose Response: With dose response, Evaluation Type: Evaluation B (Post-1980))?
The mutagenic call was “active; positive”.

And the mutagenic call (Species/Cell Type: Human, Assay Type: Sister-chromatid exchange (SCE) in vitro, Assay Code: SC1+D, Dose Response: With dose response, Evaluation Type: Evaluation B (Post-1980))?
The mutagenic call was “active; positive”.

And the mutagenic call (Species/Cell Type: Mammalian polychromatic erythrocytes, Assay Type: Micronucleus test, chromosome aberrations, Assay Code: MNT+, Evaluation Type: Evaluation B (Post-1980))?
Its mutagenic call is “active; positive”.
